According to US20190345150A1, “MICROBIOCIDAL OXADIAZOLE DERIVATIVES” (SYNGENTA PARTICIPATIONS AG, priority 2016, published 2019):
Several values for one entry are separate records, joined by “and”; a condition that tells them apart may be missing. Equal values may be shown once.

Legend:
Phakopsora pachyrhizi = Phakopsora pachyrhizi / soybean / leaf disc preventative (Asian soybean rust); type: in vivo; conditions: foliar, 200 ppm in the applied formulation, soybean leaf disks, preventative (inoculated 1 day after application), compared to untreated control, read-out: disease control
Experimental: Leaf disks or leaf segments of various plant species are cut from plants grown in a greenhouse. The cut leaf disks or segments are placed in multiwell plates (24-well format) onto water agar. The leaf disks are sprayed with a test solution before (preventative) or after (curative) inoculation. Compounds to be tested are prepared as DMSO solutions (max. 10 mg/ml) which are diluted to the appropriate concentration with 0.025% Tween20 just before spraying. The inoculated leaf disks or segments are incubated under defined conditions (temperature, relative humidity, light, etc.) according to the respective test system. A single evaluation of disease level is carried out 3 to 14 days after inoculation, depending on the pathosystem. Percent disease control relative to the untreated check leaf disks or segments is then calculated. Soybean leaf disks are placed on water agar in multiwell plates (24-well format) and sprayed with the formulated test compound diluted in water. One day after application leaf discs are inoculated by spraying a spore suspension on the lower leaf surface. After an incubation period in a climate cabinet of 24-36 hours in darkness at 20° C. and 75% rh leaf disc are kept at 20° C. with 12 h light/day and 75% rh. The activity of a compound is assessed as percent disease control compared to untreated when an appropriate level of disease damage appears in untreated check leaf disks (12 to 14 days after application).

[1] = test system: Puccinia recondita f. Sp. Tritici; experiment: Puccinia recondita f. sp. tritici / wheat / leaf disc preventative (brown rust); type: in vivo; conditions: foliar, 200 ppm in the applied formulation, wheat leaf segments cv. Kanzler, preventative (inoculated 1 day after application), compared to untreated control, read-out: disease control
Experimental: Leaf disks or leaf segments of various plant species are cut from plants grown in a greenhouse. The cut leaf disks or segments are placed in multiwell plates (24-well format) onto water agar. The leaf disks are sprayed with a test solution before (preventative) or after (curative) inoculation. Compounds to be tested are prepared as DMSO solutions (max. 10 mg/ml) which are diluted to the appropriate concentration with 0.025% Tween20 just before spraying. The inoculated leaf disks or segments are incubated under defined conditions (temperature, relative humidity, light, etc.) according to the respective test system. A single evaluation of disease level is carried out 3 to 14 days after inoculation, depending on the pathosystem. Percent disease control relative to the untreated check leaf disks or segments is then calculated. Wheat leaf segments cv. Kanzler were placed on agar in multiwell plates (24-well format) and sprayed with the formulated test compound diluted in water. The leaf disks were inoculated with a spore suspension of the fungus 1 day after application. The inoculated leaf segments were incubated at 19° C. and 75% relative humidity (rh) under a light regime of 12 hours light/12 hours darkness in a climate cabinet and the activity of a compound was assessed as percent disease control compared to untreated when an appropriate level of disease damage appears in untreated check leaf segments (7 to 9 days after application).

[2] = test system: Puccinia recondita f. Sp. Tritici; experiment: Puccinia recondita f. sp. tritici / wheat / leaf disc curative (brown rust); type: in vivo; conditions: foliar, 24 h, 200 ppm in the applied formulation, wheat leaf segments cv. Kanzler, curative (applied 1 day after inoculation), compared to untreated control, read-out: disease control
Experimental: Leaf disks or leaf segments of various plant species are cut from plants grown in a greenhouse. The cut leaf disks or segments are placed in multiwell plates (24-well format) onto water agar. The leaf disks are sprayed with a test solution before (preventative) or after (curative) inoculation. Compounds to be tested are prepared as DMSO solutions (max. 10 mg/ml) which are diluted to the appropriate concentration with 0.025% Tween20 just before spraying. The inoculated leaf disks or segments are incubated under defined conditions (temperature, relative humidity, light, etc.) according to the respective test system. A single evaluation of disease level is carried out 3 to 14 days after inoculation, depending on the pathosystem. Percent disease control relative to the untreated check leaf disks or segments is then calculated. Wheat leaf segments cv. Kanzler are placed on agar in multiwell plates (24-well format). The leaf segments are then inoculated with a spore suspension of the fungus. Plates were stored in darkness at 19° C. and 75% relative humidity. The formulated test compound diluted in water was applied 1 day after inoculation. The leaf segments were incubated at 19° C. and 75% relative humidity under a light regime of 12 hours light/12 hours darkness in a climate cabinet and the activity of a compound was assessed as percent disease control compared to untreated when an appropriate level of disease damage appears in untreated check leaf segments (6 to 8 days after application).

[3] = test system: Glomerella laqenarium (Colletotrichum laqenarium); experiment: Glomerella lagenarium liquid culture / cucumber / preventative (anthracnose); type: cell-based; conditions: 20 ppm in the applied formulation, liquid culture in PDB, growth inhibition measured photometrically 3 to 4 days after application, compared to untreated control, read-out: disease control
Experimental: Mycelia fragments or conidia suspensions of a fungus prepared either freshly from liquid cultures of the fungus or from cryogenic storage, are directly mixed into nutrient broth. DMSO solutions of the test compound (max. 10 mg/ml) are diluted with 0.025% Tween20 by a factor of 50 and 10 μl of this solution is pipetted into a microtiter plate (96-well format). The nutrient broth containing the fungal spores/mycelia fragments is then added to give an end concentration of the tested compound. The test plates are incubated in the dark at 24° C. and 96% relative humidity. The inhibition of fungal growth is determined photometrically after 2 to 7 days, depending on the pathosystem, and percent antifungal activity relative to the untreated check is calculated. Conidia of the fungus from cryogenic storage are directly mixed into nutrient broth (PDB—potato dextrose broth). After placing a (DMSO) solution of test compound into a microtiter plate (96-well format), the nutrient broth containing the fungal spores is added. The test plates are incubated at 24° C. and the inhibition of growth is measured photometrically 3 to 4 days after application.

melting point | SMILES | pest or weed control at 200 ppm (Phakopsora pachyrhizi) [%] | pest or weed control at 200 ppm [1] [%] | pest or weed control at 200 ppm [2] [%] | inhibition of growth at 20 ppm [3] [%]
84 to 86 °C | Fc1ccc(OCc2ccc(-c3noc(C(F)(F)F)n3)cc2)nc1 [Compound 1.16, 3-[4-[(5-fluoro-2-pyridyl)oxymethyl]phenyl]-5-(trifluoromethyl)-1,2,4-oxadiazole] | ≥ 80 |  |  | 
97 to 101 °C and 97 to 100.9 °C | FC(F)(F)c1nc(-c2ccc(COC3=NOCC3)cc2)no1 [Compound 1.2, 3-[4-(4,5-dihydroisoxazol-3-yloxymethyl)phenyl]-5-(trifluoromethyl)-1,2,4-oxadiazole] | ≥ 80 | ≥ 80 | ≥ 80 | ≥ 80
 | O=C(NC1CC1)OCc1ccc(-c2noc(C(F)(F)F)n2)cc1 [Compound 3.2, [4-[5-(trifluoromethyl)-1,2,4-oxadiazol-3-yl]phenyl]methyl N-cyclopropylcarbamate] | ≥ 80 | ≥ 80 | ≥ 80 | ≥ 80
61.8 to 64.4 °C | FC(F)(F)c1nc(-c2ccc(COc3ccon3)cc2)no1 [Compound 1.4, 3-[4-(isoxazol-3-yloxymethyl)phenyl]-5-(trifluoromethyl)-1,2,4-oxadiazole] | ≥ 80 | ≥ 80 | ≥ 80 | ≥ 80
84.9 to 87.8 °C | Cn1ccc(OCc2ccc(-c3noc(C(F)(F)F)n3)cc2)n1 [Compound 1.17, 3-[4-[(1-methylpyrazol-3-yl)oxymethyl]phenyl]-5-(trifluoromethyl)-1,2,4-oxadiazole] | ≥ 80 | ≥ 80 | ≥ 80 | ≥ 80
108 to 110 °C | Fc1ccccc1OCc1ccc(-c2noc(C(F)(F)F)n2)cc1 [Compound 1.11, 3-[4-[(2-fluorophenoxy)methyl]phenyl]-5-(trifluoromethyl)-1,2,4-oxadiazole] | ≥ 80 | ≥ 80 | ≥ 80 | ≥ 80
137.4 to 141.8 °C | Cc1cc(OCc2ccc(-c3noc(C(F)(F)F)n3)cc2)n[nH]1 [Compound 1.19, 3-[4-[(5-methyl-1H-pyrazol-3-yl)oxymethyl]phenyl]-5-(trifluoromethyl)-1,2,4-oxadiazole] | ≥ 80 | ≥ 80 | ≥ 80 | ≥ 80
104 to 106 °C | CC(Oc1nnnn1C)c1ccc(-c2noc(C(F)(F)F)n2)cc1 (stereo not drawn) [Compound 1.22, 3-[4-[1-(1-methyltetrazol-5-yl)oxyethyl]phenyl]-5-(trifluoromethyl)-1,2,4-oxadiazole] | ≥ 80 | ≥ 80 | ≥ 80 | ≥ 80
 | C/C(=N/OCc1ccc(-c2noc(C(F)(F)F)n2)cc1)N1CCOCC1 [Compound 4.3, (Z)-1-morpholino-N-[[4-[5-(trifluoromethyl)-1,2,4-oxadiazol-3-yl]phenyl]methoxy]ethanimine] | ≥ 80 | ≥ 80 |  | ≥ 80
86.1 to 87.3 °C | CC(=O)n1ccc(OCc2ccc(-c3noc(C(F)(F)F)n3)cc2)n1 [Compound 1.18, 1-[3-[[4-[5-(trifluoromethyl)-1,2,4-oxadiazol-3-yl]phenyl]methoxy]pyrazol-1-yl]ethanone] | ≥ 80 | ≥ 80 | ≥ 80 | ≥ 80
51 to 53 °C | C/C(=N/OCc1ccc(-c2noc(C(F)(F)F)n2)cc1)n1ccnc1 [Compound 4.2, (Z)-1-imidazol-1-yl-N-[[4-[5-(trifluoromethyl)-1,2,4-oxadiazol-3-yl]phenyl]methoxy]ethanimine] | ≥ 80 | ≥ 80 | ≥ 80 | ≥ 80
113.3 to 114.2 °C | Cn1nnnc1OCc1ccc(-c2noc(C(F)(F)F)n2)cc1 [Compound 1.8, 3-[4-[(1-methyltetrazol-5-yl)oxymethyl]phenyl]-5-(trifluoromethyl)-1,2,4-oxadiazole] | ≥ 80 | ≥ 80 | ≥ 80 | ≥ 80
81.2 to 82.6 °C | Cc1cc(OCc2ccc(-c3noc(C(F)(F)F)n3)cc2)no1 [Compound 1.5, 3-[4-[(5-methylisoxazol-3-yl)oxymethyl]phenyl]-5-(trifluoromethyl)-1,2,4-oxadiazole] | ≥ 80 | ≥ 80 | ≥ 80 | ≥ 80
50.2 to 51.8 °C | CC1(C)CON=C1OCc1ccc(-c2noc(C(F)(F)F)n2)cc1 [Compound 1.1, 3-[4-[(4,4-dimethyl-5H-isoxazol-3-yl)oxymethyl]phenyl]-5-(trifluoromethyl)-1,2,4-oxadiazole] | ≥ 80 | ≥ 80 | ≥ 80 | ≥ 80
 | Fc1cc(COC2=NOCC2)ccc1-c1noc(C(F)(F)F)n1 [Compound 1.13, 3-[4-(4,5-dihydroisoxazol-3-yloxymethyl)-2-fluoro-phenyl]-5-(trifluoromethyl)-1,2,4-oxadiazole] | ≥ 80 | ≥ 80 | ≥ 80 | ≥ 80
107.9 to 108.6 °C | CC1(C)CC(OCc2ccc(-c3noc(C(F)(F)F)n3)cc2)=NO1 [Compound 1.3, 3-[4-[(5,5-dimethyl-4H-isoxazol-3-yl)oxymethyl]phenyl]-5-(trifluoromethyl)-1,2,4-oxadiazole] | ≥ 80 |  |  | ≥ 80
 | CON=COCc1ccc(-c2noc(C(F)(F)F)n2)cc1 [Compound 1.23, [4-[5-(trifluoromethyl)-1,2,4-oxadiazol-3-yl]phenyl]methyl N-methoxymethanimidate] | ≥ 80 | ≥ 80 | ≥ 80 | ≥ 80
